Measurements from US10660334B2, “Fused bicyclic heterocycle derivatives as pesticides” (Bayer CropScience Aktiengesellschaft, priority 2016, dated 2020).

How the values were obtained:
[1] = tested on: Phaedon cochleariae; experiment: Phaedon cochleariae spray test; assay type: in vivo; details: spray on Chinese cabbage leaf discs, after 7 days
Method: Phaedon cochleariae—Spray Test
Solvent: 78.0 parts by weight of acetone • • 1.5 parts by weight of dimethylformamide
Emulsifier: alkylaryl polyglycol ether
To produce a suitable active ingredient formulation, 1 part by weight of active ingredient is dissolved with the specified parts by weight of solvent and made up to the desired concentration with water containing an emulsifier concentration of 1000 ppm. To produce further test concentrations, the formulation is diluted with emulsifier-containing water.
Discs of Chinese cabbage leaves (Brassica pekinensis) are sprayed with an active ingredient formulation of the desired concentration and, after drying, populated with larvae of the mustard beetle (Phaedon cochleariae).
After 7 days, the efficacy in % is determined. 100% means that all the beetle larvae have been killed; 0% means that no beetle larvae have been killed.

[2] = log P by HPLC on reversed-phase column (EEC Directive 79/831 Annex V.A8), acidic range; assay type: physicochemical; details: reversed-phase C18 HPLC column; HPLC reversed-phase C18, 55° C., pH 2.7, 0.1% aqueous formic acid and acetonitrile; read-out: log P (HCOOH)
Method: The log P values are measured according to EEC Directive 79/831 Annex V.A8 by HPLC (high-performance liquid chromatography) on a reversed-phase column (C18). Temperature: 55° C. The LC-MS determination in the acidic range is effected at pH 2.7 with 0.1% aqueous formic acid and acetonitrile (containing 0.1% formic acid) as eluents; linear gradient from 10% acetonitrile to 95% acetonitrile. Called log P (HCOOH) in the table.

[3] = tested on: Myzus persicae; experiment: Myzus persicae spray test; assay type: in vivo; details: foliar, 120 h, spray on Chinese cabbage leaf discs, after 5 days, read-out: efficacy (aphids killed); for pest or weed control at 20 g/ha: application rate 20 g/ha; for pest or weed control at 100 g/ha: application rate 100 g/ha
Method: Myzus persicae—Spray Test Solvent: 78 parts by weight of acetone • • 1.5 parts by weight of dimethylformamide Emulsifier: alkylaryl polyglycol ether To produce a suitable active ingredient formulation, 1 part by weight of active ingredient is dissolved with the specified parts by weight of solvent and made up to the desired concentration with water containing an emulsifier concentration of 1000 ppm. To produce further test concentrations, the formulation is diluted with emulsifier-containing water. Discs of Chinese cabbage leaves (Brassica pekinensis) infested by all stages of the green peach aphid (Myzus persicae) are sprayed with an active ingredient formulation of the desired concentration. After 5 days, the efficacy in % is determined. 100% means that all the aphids have been killed; 0% means that no aphids have been killed.

[4] = tested on: Myzus persicae; experiment: Myzus persicae oral test; assay type: in vivo; details: 120 h, application rate 4 ppm, after 5 days, read-out: efficacy (aphids killed)
Method: Myzus persicae—Oral Test Solvent: 100 parts by weight of acetone To produce a suitable active ingredient formulation, 1 part by weight of active ingredient is dissolved with the stated parts by weight of solvent and made up to the desired concentration with water. 50 μl of the active ingredient preparation are transferred into microtitre plates and made up to a final volume of 200 μl with 150 μl of IPL41 insect medium (33%+15% sugar). Subsequently, the plates are sealed with parafilm, which a mixed population of green peach aphids (Myzus persicae) within a second microtitre plate is able to puncture and imbibe the solution. After 5 days, the efficacy in % is determined. 100% means that all the aphids have been killed; 0% means that no aphids have been killed.

[5] = tested on: Lucilia cuprina; experiment: Lucilia cuprina test; assay type: in vivo; details: application rate 100 ppm, L1 larvae, after 2 days
Method: Lucilia cuprina Test Solvent: dimethyl sulfoxide To produce a suitable active ingredient formulation, 10 mg of active ingredient are mixed with 0.5 ml of dimethyl sulfoxide, and the concentrate is diluted with water to the desired concentration. About 20 L1 larvae of the Australian sheep blowfly (Lucilia cuprina) are transferred into a test vessel containing minced horsemeat and the active ingredient formulation of the desired concentration. After 2 days, the kill in % is determined. 100% means that all the larvae have been killed; 0% means that no larvae have been killed.

[6] = tested on: Musca domestica; experiment: Musca domestica test; assay type: in vivo; details: application rate 100 ppm, adult houseflies, after 2 days
Method: Musca domestica Test Solvent: dimethyl sulfoxide To produce a suitable active ingredient formulation, 10 mg of active ingredient are mixed with 0.5 ml of dimethyl sulfoxide, and the concentrate is diluted with water to the desired concentration. Vessels containing a sponge treated with sugar solution and the active ingredient formulation of the desired concentration are populated with 10 adult houseflies (Musca domestica). After 2 days, the kill in % is determined. 100% means that all of the flies have been killed; 0% means that none of the flies have been killed.

Row | Compound | chromatographic logP [2] | pest or weed control at 20 g/ha [3] | pest or weed control at 100 g/ha [3] | pest or weed control at 4 ppm [4] | further results
1 | CCS(=O)(=O)c1c(-c2nc3cc(C(F)(F)F)ncc3n2C)nc2n1CCCC2 [Example I-002, 2-(3-Ethylsulfonyl-5,6,7,8-tetrahydroimidazo[1,2-a]pyridin-2-yl)-3-methyl-6-(trifluoromethyl)imidazo[4,5-c]pyridine] | 1.97 | 90% | 90% | – | efficacy (beetle larvae killed) ([1]; application rate 500 g/ha): 83%; pest or weed control at 500 g/ha ([3]; application rate 500 g/ha): 90%
2 | CCS(=O)(=O)c1c(-c2nc3cc(C(F)(F)F)ncc3n2C)nc2n1CCCC2C(F)(F)F (stereo not drawn) [Example I-004] | – | – | – | 100% | –
3 | CCS(=O)(=O)c1c(-c2nc3cc(C(F)(F)F)ncc3n2C)nc2n1CCCC2(O)C(F)(F)F (stereo not drawn) [Example I-006] | – | – | – | 100% | –
4 | Cn1c(-c2nc3n(c2S(C)(=O)=O)CCCC3)nc2cc(C(F)(F)F)cnc21 [Example I-014] | – | – | 90% | 100% | efficacy (kill) [5]: 100%; efficacy (kill) [6]: 100%
5 | CCS(=O)(=O)c1c(-c2nc3cc(C(F)(F)F)ccc3n2C)nc2n1CCCC2 [Example I-015] | – | 90% | 90% | 100% | efficacy (kill) [5]: 100%; efficacy (beetle larvae killed) ([1]; application rate 100 g/ha): 83%; efficacy (kill) [6]: 90%
6 | Cn1c(-c2nc3n(c2S(C)(=O)=O)CCCC3)nc2cc(C(F)(F)F)ccc21 [Example I-016] | – | – | – | 100% | –
7 | Cn1c(-c2nc3n(c2S(C)(=O)=O)CCCC3)nc2cc(C(F)(F)F)cnc21 [Example I-018] | – | 90% | – | – | –
8 | CCS(=O)(=O)c1c(-c2nc3cc(C(F)(F)F)nc(C(C)C)c3n2C)nc2n1CCCC2 [Example I-019] | – | 90% | 90% | 100% | –
9 | CCS(=O)(=O)c1c(-c2nc3cc(SC(F)(F)F)cnc3n2C)nc2n1CCCC2 [Example I-020] | – | 90% | 90% | 100% | efficacy (beetle larvae killed) ([1]; application rate 100 g/ha): 100%
10 | CCS(=O)(=O)c1c(-c2nc3cc(S(=O)(=O)C(F)(F)F)cnc3n2C)nc2n1CCCC2 [Example I-021] | – | 90% | 100% | 100% | efficacy (beetle larvae killed) ([1]; application rate 100 g/ha): 100%
11 | CCS(=O)(=O)c1c(-c2nc3cc([S+]([O-])C(F)(F)F)cnc3n2C)nc2n1CCCC2 (stereo not drawn) [Example I-022] | – | 90% | – | 100% | –
12 | Cn1c(-c2nc3n(c2S(C)(=O)=O)CCCC3)nc2cc(SC(F)(F)F)cnc21 [Example I-023] | – | 90% | 90% | 100% | –
13 | CCS(=O)(=O)c1c(-c2nc3cc(C(F)(F)F)ncc3n2C)nc2n1CCCC2O (stereo not drawn) [Example I-024, 3-Ethylsulfonyl-2-[3-methyl-6-(trifluoromethyl)imidazo[4,5-c]pyridin-2-yl]-5,6,7,8-tetrahydro-imidazo[1,2-a]pyridin-8-ol] | 1.6 | – | 90% | 100% | –
14 | CCS(=O)(=O)c1c(-c2nc3cc(C(F)(F)F)nc(C(F)F)c3n2C)nc2n1CCCC2 [Example I-025, 4-(Difluoromethyl)-2-[3-(ethylsulfonyl)-5,6,7,8-tetrahydroimidazo[1,2-a]pyridin-2-yl]-3-methyl-6-(trifluoromethyl)-3H-imidazo[4,5-c]pyridine] | 2.8 | – | – | 100% | –
15 | CCS(=O)(=O)c1c(-c2nc3cc(C(F)(F)F)ncc3n2C)nc2n1CCCC2F (stereo not drawn) [Example I-026, 2-[3-(Ethylsulfonyl)-8-fluoro-5,6,7,8-tetrahydroimidazo[1,2-a]pyridin-2-yl]-3-methyl-6-(trifluoromethyl)-3H-imidazo[4,5-c]pyridine] | 2.11 | – | – | – | –

More lines, main results first:

Row | chromatographic logP [2] | Compound | pest or weed control at 20 g/ha [3] | pest or weed control at 100 g/ha [3] | pest or weed control at 4 ppm [4] | further results
16 | 2.51 | CCS(=O)(=O)c1c(-c2nc3cc(C(F)(F)F)ncc3n2C)nc2n1CCC(C)(C)C2 [Example I-031, 2-(3-Ethysulfonyl-7,7-dimethyl-6,8-dihydro-5H-imidazo[1,2-a]pyridin-2-yl)-3-methyl-6-(trifluoromethyl)imidazo[4,5-c]pyridine] | – | – | – | –
17 | 2.8 | CCS(=O)(=O)c1c(-c2nc3cc(C(F)(F)C(F)(F)F)ncc3n2C)nc2n1CCC(C)C2 (stereo not drawn) [Example I-034, 2-(3-Ethylsulfonyl-7-methyl-5,6,7,8-tetrahydroimidazo[1,2-a]pyridin-2-yl)-3-methyl-6-(1,1,2,2,2-pentafluoroethyl)imidazo[4,5-c]pyridine] | – | – | – | –
18 | 2.1 | CCS(=O)(=O)c1c(-c2nc3cc(C(F)(F)F)nc(C)c3n2C)nc2n1CCCC2 [Example I-039, 2-(3-Ethylsulfonyl-5,6,7,8-tetrahydroimidazo[1,2-a]pyridin-2-yl)-3,4-dimethyl-6-(trifluoromethyl)imidazo[4,5-c]pyridine] | – | – | – | –
19 | 2.51 | CCc1nc(C(F)(F)F)cc2nc(-c3nc4n(c3S(=O)(=O)CC)CCCC4)n(C)c12 [Example I-040, 4-Ethyl-2-(3-ethylsulfonyl-5,6,7,8-tetrahydroimidazo[1,2-a]pyridin-2-yl)-3-methyl-6-(trifluoromethyl)imidazo[4,5-c]pyridine] | – | – | – | –
20 | 2.31 | CCS(=O)(=O)c1c(-c2nc3cc(C(F)(F)F)ncc3n2C)nc2n1CCCC2C (stereo not drawn) [Example I-043, 2-(3-Ethylsulfonyl-8-methyl-5,6,7,8-tetrahydroimidazo[1,2-a]pyridin-2-yl)-3-methyl-6-(trifluoromethyl)imidazo[4,5-c]pyridine] | – | – | – | –
21 | 2.26 | Cn1c(-c2nc3n(c2Cl)CCCC3)nc2cc(C(F)(F)F)ncc21 [Example V-001, 2-(3-Chloro-5,6,7,8-tetrahydroimidazo[1,2-a]pyridin-2-yl)-3-methyl-6-(trifluoromethyl)imidazo[4,5-c]pyridine] | – | – | – | –
22 | 3.39 | CC1CCn2c(nc(-c3nc4cc(C(F)(F)C(F)(F)F)ncc4n3C)c2Br)C1 (stereo not drawn) [Example V-002, 2-(3-Bromo-7-methyl-5,6,7,8-tetrahydroimidazo[1,2-a]pyridin-2-yl)-3-methyl-6-(1,1,2,2,2-pentafluoroethyl)imidazo[4,5-c]pyridine] | – | – | – | –
23 | 3.03 | Cn1c(-c2nc3n(c2Br)CCC(C)(C)C3)nc2cc(C(F)(F)F)ncc21 [Example V-003, 2-(3-Bromo-7,7-dimethyl-6,8-dihydro-5H-imidazo[1,2-a]pyridin-2-yl)-3-methyl-6-(trifluoromethyl)imidazo[4,5-c]pyridine] | – | – | – | –
24 | 0.27 | CC1CCn2c(nc(C(=O)O)c2Br)C1 (stereo not drawn) [III-001, 3-Bromo-7-methyl-5,6,7,8-tetrahydroimidazo[1,2-a]pyridine-2-carboxylic acid] | – | – | – | –
25 | 0.67 | CC1(C)CCn2c(nc(C(=O)O)c2Br)C1 [III-002, 3-Bromo-7,7-dimethyl-6,8-dihydro-5H-imidazo[1,2-a]pyridine-2-carboxylic acid] | – | – | – | –
